Measurements: patent publication US20240300976A1, “COMPOUNDS AS MODULATORS OF ENDOPLASMIC RETICULUM AMINOPEPTIDASE 1 (ERAP1)” (GREY WOLF THERAPEUTICS LIMITED, priority 2020, published 2024)

biological target: T1, ERAP1 (Homo sapiens, UniProt Q9NZ08); experiment: ERAP1 mediated hydrolysis of an amide substrate (10-mer inhibition assay), biochemical system; details: 10-mer substrate, incubated at 23° C. for 1 h, excitation 279 nm and emission 355 nm; read-out: IC50 vs Decapeptide WRVYEKC(Dnp)ALK-acid (where Dnp is Dinitrophenyl maleimide) (10-mer)
T1 construct: Purified ERAP1(37-941)-10His (ERAP1); 10His (C)
T1 sequence (Q9NZ08 37-941): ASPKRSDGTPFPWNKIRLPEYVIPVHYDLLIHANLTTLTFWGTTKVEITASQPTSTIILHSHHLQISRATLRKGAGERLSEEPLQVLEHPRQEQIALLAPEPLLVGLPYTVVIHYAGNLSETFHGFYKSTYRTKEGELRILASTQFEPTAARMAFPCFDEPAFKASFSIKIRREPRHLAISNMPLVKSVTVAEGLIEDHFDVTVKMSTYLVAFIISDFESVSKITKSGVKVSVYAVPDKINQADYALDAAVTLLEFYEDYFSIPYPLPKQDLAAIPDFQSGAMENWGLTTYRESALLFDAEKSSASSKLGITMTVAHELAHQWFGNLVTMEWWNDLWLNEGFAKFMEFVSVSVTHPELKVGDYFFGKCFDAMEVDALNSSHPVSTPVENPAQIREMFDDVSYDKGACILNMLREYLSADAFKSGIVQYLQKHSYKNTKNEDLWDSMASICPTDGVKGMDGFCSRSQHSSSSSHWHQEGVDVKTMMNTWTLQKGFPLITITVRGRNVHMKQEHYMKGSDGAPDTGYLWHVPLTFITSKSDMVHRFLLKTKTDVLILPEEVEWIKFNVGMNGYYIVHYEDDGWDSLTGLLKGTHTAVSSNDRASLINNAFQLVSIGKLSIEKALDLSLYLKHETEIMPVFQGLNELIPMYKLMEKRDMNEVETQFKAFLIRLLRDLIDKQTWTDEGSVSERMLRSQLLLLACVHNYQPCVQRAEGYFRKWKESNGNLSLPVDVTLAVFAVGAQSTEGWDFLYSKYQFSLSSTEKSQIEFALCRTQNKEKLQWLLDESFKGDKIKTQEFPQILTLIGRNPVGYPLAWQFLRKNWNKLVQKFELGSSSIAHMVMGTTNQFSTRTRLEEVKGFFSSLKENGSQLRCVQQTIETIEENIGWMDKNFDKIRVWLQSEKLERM
Description: This peptide has minimal fluorescence as the N-terminal tryptophan residue's fluorescence is quenched by the dinitrophenol (DNP) residue within the peptide. However, as ERAP1 hydrolyses the N-terminal amide bond and tryptophan is released this internal quenching is lost and the reaction is monitored by the increase in tryptophan fluorescence over the course of the assay. For the purposes of this application this assay is referred to as the “1 Omer inhibition assay” and compound potencies are calculated and expressed as 1050 as would be familiar to a person skilled in the art.
Biological Assay 1: ERAP1 Mediated Hydrolysis of an Amide Substrate Measured in a Biochemical System
• 1× Assay buffer (AB): 25 mM Bis-tris propane, 0.05% w/v Hydroxypropylmethylcellulose pH 7.75 made with Optima grade water • Decapeptide WRVYEKC(Dnp)ALK-acid (where Dnp is Dinitrophenyl maleimide) (10-mer) • L-Leucine 7-amido-4-methylcoumarin (L-AMC) • Purified ERAP1(37-941)-10His (ERAP1)
12.5 μL ERAP1 enzyme in 1×AB was combined with 250 nL test compound in DMSO. 12.5 μL of either 240 μM L-AMC in 1×AB or 100 μM 10-mer in 1×AB was added to the reaction and incubated at 23° C. for 1 h. For detection, plates were read at excitation 365 nm and emission 442 nm (L-AMC) or excitation 279 nm and emission 355 nm (10-mer). Compound IC50 was determined using a 4-parameter equation.

| SMILES | IC50 [nM] |
| --- | --- |
| N#Cc1ccc2c(c1)NS(=O)(=O)c1cc(C(=O)O)ccc1OCCCCC1CCCCN21 (single isomer, unassigned) [Example 12, 2-cyano-7,8,9,9a,10,11,12,13-octahydro-6H,20H-dibenzo[b,f]pyrido[1,2-h][1]oxa[4]thia[5,8]diazacyclotridecine-17-carboxylic acid 19,19-dioxide] | 250 to 1000 |
| N#Cc1cc2c(cc1Cl)N1CCCCC1C/C=C/COc1ccc(C(=O)O)cc1S(=O)(=O)N2 (racemic) [Example 30, (E)-3-chloro-2-cyano-7,8,9,9a,10,13-hexa hydro-6H, 20H-dibenzo[b,f]pyrido[1,2-h][1]oxa[4]thia[5,8]diazacyclotridecine-17-carboxylic acid 19,19-dioxide] | < 250 |
| CS(=O)(=O)c1cc2c(cc1F)N1CCCCC1COc1ccc(C(=O)O)cc1S(=O)(=O)N2 (single isomer, unassigned) [Example 40, 9-fluoro-8-(methylsulfonyl)-12,13,14,15,15a,16-hexahydro-6H-dibenzo[b,f]pyrido[1,2-h][1,4,5,8]oxathiadiazecine-3-carboxylic acid 5,5-dioxide] | > 1000 |
| N#Cc1ccc2c(c1)NS(=O)(=O)c1cc(C(=O)O)ccc1OCCCC1CCCCN21 (single isomer, unassigned) [Example 8, 2-cyano-6,7,8,9,9a,10,11,12-octahydro-19H-dibenzo[b,f]pyrido[1,2-h][1]oxa[4]thia[5,8]diazacyclododecine-16-carboxylic acid 18,18-dioxide] | < 250 |
| N#Cc1ccc2c(c1)NS(=O)(=O)c1cc(C(=O)O)ccc1OCCC1CCCCN21 (racemic) [Example 2, 2-cyano-7,8,9,9a,10,11-hexahydro-6H, 18H-dibenzo[b,f]pyrido[1,2-h][1]oxa[4]thia[5,8]diazacycloundecine-15-carboxylic acid 17,17-dioxide] | > 1000 |
| N#Cc1ccc2c(c1)NS(=O)(=O)c1cc(C(=O)O)ccc1OC/C=C/CC1CCCCN21 (single isomer, unassigned) [Example 32, (E)-2-cyano-7,8,9,9a,10,13-hexahydro-6H, 20H-dibenzo[b,f]pyrido[1,2-h][1]oxa[4]thia[5,8]diazacyclotridecine-17-carboxylic acid 19,19-dioxide] | < 250 |
| CS(=O)(=O)c1ccc2c(c1)NS(=O)(=O)c1cc(C(=O)O)ccc1OCCCC1CCCCN21 (racemic) [Example 36, 2-(methylsulfonyl)-6,7,8,9,9a,10,11,12-octahydro-19H-dibenzo[b,f]pyrido[1,2-h][1]oxa[4]thia[5,8]diazacyclododecine-16-carboxylic acid 18,18-dioxide] | < 250 |
| N#Cc1cc2c(cc1Cl)N1CCCC[C@H]1COCCOc1ccc(C(=O)O)cc1S(=O)(=O)N2 (single isomer, unassigned) [Example 68] | < 250 |
| N#Cc1cc2c(cc1Cl)N1CCCCC1CCCCOc1ccc(C(=O)O)cc1S(=O)(=O)N2 (racemic) [Example 22, 3-chloro-2-cyano-7,8,9,9a,10,11,12,13-octahydro-6H, 20H-dibenzo[b,f]pyrido[1,2-h][1]oxa[4]thia[5,8]diazacyclotridecine-17-carboxylic acid 19,19-dioxide] | < 250 |
| N#Cc1cc2c(cc1Cl)N1CCCCC1COc1ccc(C(=O)O)cc1S(=O)(=O)N2 (racemic) [Example 14, 9-chloro-8-cyano-12,13,14,15,15a,16-hexahydro-6H-dibenzo[b,f]pyrido[1,2-h][1,4,5,8]oxathiadiazecine-3-carboxylic acid 5,5-dioxide] | < 250 |
| N#Cc1cc2c(cc1F)N1CCCC[C@H]1CCCCOc1ccc(C(=O)O)cc1S(=O)(=O)N2 [Example 57, (S)-2-cyano-3-fluoro-7,8,9,9a,10,11,12,13-octahydro-6H, 20H-dibenzo[b,f]pyrido[1,2-h][1]oxa[4]thia[5,8]diazacyclotridecine-17-carboxylic acid 19,19-dioxide] | < 250 |
| N#Cc1cc2c(cc1Cl)N1CCCC[C@H]1CCCOc1ccc(C(=O)O)cc1S(=O)(=O)N2 [Example 60, (S)-3-chloro-2-cyano-6,7,8,9,9a,10,11,12-octahydro-19H-dibenzo[b,f]pyrido[1,2-h][1]oxa[4]thia[5,8]diazacyclododecine-16-carboxylic acid 18,18-dioxide] | < 250 |
| CS(=O)(=O)c1ccc2c(c1)NS(=O)(=O)c1cc(C(=O)O)ccc1OCC1CCCCN21 (racemic) [Example 18, 8-(methylsulfonyl)-12,13,14,15,15a,16-hexahydro-6H-dibenzo[b,f]pyrido[1,2-h][1,4,5,8]oxathiadiazecine-3-carboxylic acid 5,5-dioxide] | 250 to 1000 |
| CS(=O)(=O)c1ccc2c(c1)NS(=O)(=O)c1cc(C(=O)O)ccc1OCC1CCCCN21 (single isomer, unassigned) [Example 19, 8-(methylsulfonyl)-12,13,14,15,15a,16-hexahydro-6H-dibenzo[b,f]pyrido[1,2-h][1,4,5,8]oxathiadiazecine-3-carboxylic acid 5,5-dioxide] | < 250 |
| CS(=O)(=O)c1ccc2c(c1)NS(=O)(=O)c1cc(C(=O)O)ccc1OCC1CCCCN21 (single isomer, unassigned) [Example 20, 8-(methylsulfonyl)-12,13,14,15,15a,16-hexahydro-6H-dibenzo[b,f]pyrido[1,2-h][1,4,5,8]oxathiadiazecine-3-carboxylic acid 5,5-dioxide] | > 1000 |
| CS(=O)(=O)NC(=O)c1ccc2c(c1)S(=O)(=O)Nc1cc(C#N)c(Cl)cc1N1CCCC[C@H]1/C=C/CO2 (single isomer, unassigned) [Example 58] | > 1000 |
| N#Cc1cc2c(cc1Cl)N1CCCCC1CCCCOc1ccc(C(=O)O)cc1S(=O)(=O)N2 (single isomer, unassigned) [Example 27, 3-chloro-2-cyano-7,8,9,9a,10,11,12,13-octahydro-6H, 20H-dibenzo[b,f]pyrido[1,2-h][1]oxa[4]thia[5,8]diazacyclotridecine-17-carboxylic acid 19,19-dioxide] | < 250 |
| N#Cc1cc2c(cc1Cl)N1CCCCC1CCCOc1ccc(C(=O)O)cc1S(=O)(=O)N2 (racemic) [Example 21, 3-chloro-2-cyano-6,7,8,9,9a,10,11,12-octahydro-19H-dibenzo[b,f]pyrido[1,2-h][1]oxa[4]thia[5,8]diazacyclododecine-16-carboxylic acid 18,18-dioxide] | < 250 |
| CS(=O)(=O)NC(=O)c1ccc2c(c1)S(=O)(=O)Nc1cc(C#N)c(Cl)cc1N1CCCC[C@H]1CCCO2 [Example 64, (S)-3-chloro-2-cyano-N-(methylsulfonyl)-6,7,8,9,9a,10,11,12-octahydro-19H-dibenzo[b,f]pyrido[1,2-h][1]oxa[4]thia[5,8]diazacyclododecine-16-carboxamide 18,18-dioxide] | > 1000 |
| N#Cc1cc2c(cc1Cl)N1CCCCC1C/C=C/COc1ccc(C(=O)O)cc1S(=O)(=O)N2 (single isomer, unassigned) [Example 46, (E)-3-chloro-2-cyano-7,8,9,9a,10,13-hexahydro-6H, 20H-dibenzo[b,f]pyrido[1,2-h][1]oxa[4]thia[5,8]diazacyclotridecine-17-carboxylic acid 19,19-dioxide] | < 250 |
| N#Cc1cc2c(cc1Cl)N1CCCCC1COc1ccc(C(=O)O)cc1S(=O)(=O)N2 (single isomer, unassigned) [Example 16, 9-chloro-8-cyano-12,13,14,15,15a,16-hexahydro-6H-dibenzo[b,f]pyrido[1,2-h][1,4,5,8]oxathiadiazecine-3-carboxylic acid 5,5-dioxide] | > 1000 |
| N#Cc1cc2c(cc1Cl)N1CCCCC1CNCCOc1ccc(C(=O)O)cc1S(=O)(=O)N2 (racemic) [Example 66, 3-chloro-2-cyano-7,8,9,9a,10,11,12,13-octahydro-6H, 20H-dibenzo[b,f]pyrido[1,2-h][1]oxa[4]thia[5,8,11]triazacyclotridecine-17-carboxylic acid 19,19-dioxide] | > 1000 |
| N#Cc1cc2c(cc1Cl)N1CCCC[C@H]1COC/C=C/c1ccc(C(=O)O)cc1S(=O)(=O)N2 [Example 70, (S,E)-3-chloro-2-cyano-6,7,8,9,9a,10-hexahydro-12H, 20H-dibenzo[e,i]pyrido[2,1-c][1]oxa[8]thia[4,7]diazacyclotridecine-17-carboxylic acid 19,19-dioxide] | < 250 |
| N#Cc1cc2c(cc1Cl)N1CCCC[C@H]1CCC/C=C/c1ccc(C(=O)O)cc1S(=O)(=O)N2 [Example 71, (R,E)-3-chloro-2-cyano-6,7,8,9,9a,10,11,12-octahydro-20H-dibenzo[c,l]pyrido[1,2-e][1]thia[2,5]diazacyclotridecine-17-carboxylic acid 19,19-dioxide] | 250 to 1000 |
| CS(=O)(=O)c1cc2c(cc1F)N1CCCCC1CCCCOc1ccc(C(=O)O)cc1S(=O)(=O)N2 (racemic) [Example 31, 3-fluoro-2-(methylsulfonyl)-7,8,9,9a,10,11,12,13-octahydro-6H, 20H-dibenzo[b,f]pyrido[1,2-h][1]oxa[4]thia[5,8]diazacyclotridecine-17-carboxylic acid 19,19-dioxide] | < 250 |
